Assay results reported in PubChem BioAssay AID248 (DTP/NCI, 2004).
Inconclusive results and toxic doses are left out. Rule as the data show it: active = T/C of 150% or more; inactive = T/C below 125%.

Tested on: L1210 leukemia ip in BDF1 mice, survival T/C
Experiment: NCI In Vivo Anticancer Drug Screen. Data for tumor model L1210 Leukemia (intraperitoneal) in B6D2F1 (BDF1) mice
Settings: endpoint: mean survival time, higher = longer survival
Outline: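 Value reflects the ratio of survival in compound-treated mice to survival in vehicle-treated controls, with both groups carrying the same transplanted tumor.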

[1] = dose: 50.0 mg/kg/injection, schedule: Q01DX001 (ip), vehicle: saline
[2] = dose: 100.0 mg/kg/injection, schedule: Q01DX001 (ip), vehicle: carboxymethylcellulose (CMC)
[3] = dose: 100.0 mg/kg/injection, schedule: Q01DX001 (ip), vehicle: saline
[4] = dose: 200.0 mg/kg/injection, schedule: Q01DX001 (ip), vehicle: carboxymethylcellulose (CMC)
[5] = dose: 100.0 mg/kg/injection, schedule: Q04DX003 (ip), vehicle: saline
[6] = dose: 100.0 mg/kg/injection, schedule: Q01DX009 (ip), vehicle: Klucel (hydroxypropylcellulose) (HPC)
[7] = dose: 100.0 mg/kg/injection, schedule: Q04DX003 (ip), vehicle: Klucel (hydroxypropylcellulose) (HPC)
[8] = dose: 200.0 mg/kg/injection, schedule: Q01DX009 (ip), vehicle: Klucel (hydroxypropylcellulose) (HPC)
[9] = dose: 200.0 mg/kg/injection, schedule: Q04DX003 (ip), vehicle: Klucel (hydroxypropylcellulose) (HPC)
[10] = dose: 400.0 mg/kg/injection, schedule: Q04DX003 (ip), vehicle: Klucel (hydroxypropylcellulose) (HPC)
[11] = dose: 25.0 mg/kg/injection, schedule: Q04DX003 (ip), vehicle: Klucel (hydroxypropylcellulose) (HPC)
[12] = dose: 400.0 mg/kg/injection, schedule: Q01DX009 (ip), vehicle: Klucel (hydroxypropylcellulose) (HPC)

Measured: T/C

COP(=O)(OC)Oc1c(Cl)c(OP(=O)(OC)OC)c(Cl)c(OP(=O)(OC)OC)c1Cl
inactive: dose: 100.0 mg/kg/injection, schedule: Q04DX002 (ip), vehicle: Klucel (hydroxypropylcellulose) (HPC) 115 % of control | dose: 200.0 mg/kg/injection, schedule: Q04DX002 (ip), vehicle: Klucel (hydroxypropylcellulose) (HPC) 100 % of control | dose: 400.0 mg/kg/injection, schedule: Q04DX002 (ip), vehicle: Klucel (hydroxypropylcellulose) (HPC) 86 % of control

COc1cccc2c1C(=O)c1c(O)c3c(c(O)c1C2=O)CC(O)(C(C)=O)CC3O (stereo unspecified)
inactive: dose: 0.16 mg/kg/injection, schedule: Q01DX009 (ip), vehicle: saline with Tween-80 103 % of control | dose: 0.16 mg/kg/injection, schedule: Q03HX008 (ip), vehicle: saline with Tween-80 100 % of control | dose: 0.32 mg/kg/injection, schedule: Q01DX009 (ip), vehicle: saline with Tween-80 90 % of control | dose: 0.32 mg/kg/injection, schedule: Q03HX008 (ip), vehicle: saline with Tween-80 97 % of control | dose: 0.63 mg/kg/injection, schedule: Q01DX009 (ip), vehicle: saline with Tween-80 99 % of control | dose: 0.63 mg/kg/injection, schedule: Q03HX008 (ip), vehicle: saline with Tween-80 100 % of control | dose: 1.25 mg/kg/injection, schedule: Q01DX009 (ip), vehicle: saline with Tween-80 94 % of control | dose: 1.25 mg/kg/injection, schedule: Q03HX008 (ip), vehicle: saline with Tween-80 95 % of control | dose: 2.5 mg/kg/injection, schedule: Q01DX009 (ip), vehicle: saline with Tween-80 91 % of control | dose: 2.5 mg/kg/injection, schedule: Q03HX008 (ip), vehicle: saline with Tween-80 95 % of control | dose: 5.0 mg/kg/injection, schedule: Q01DX001 (ip), vehicle: saline 102 % of control | dose: 5.0 mg/kg/injection, schedule: Q01DX009 (ip), vehicle: saline with Tween-80 101 % of control | dose: 5.0 mg/kg/injection, schedule: Q03HX008 (ip), vehicle: saline with Tween-80 97 % of control | dose: 10.0 mg/kg/injection, schedule: Q01DX001 (ip), vehicle: saline 94 % of control | dose: 10.0 mg/kg/injection, schedule: Q01DX009 (ip), vehicle: saline with Tween-80 100 % of control | dose: 10.0 mg/kg/injection, schedule: Q03HX008 (ip), vehicle: saline with Tween-80 90 % of control | dose: 20.0 mg/kg/injection, schedule: Q01DX001 (ip), vehicle: saline with Tween-80 100 % of control | dose: 20.0 mg/kg/injection, schedule: Q01DX001 (ip), vehicle: saline 105 % of control | dose: 20.0 mg/kg/injection, schedule: Q04DX003 (ip), vehicle: saline with Tween-80 96 % of control | dose: 40.0 mg/kg/injection, schedule: Q01DX001 (ip), vehicle: saline with Tween-80 100 % of control | dose: 40.0 mg/kg/injection, schedule: Q01DX001 (ip), vehicle: saline 105 % of control | dose: 40.0 mg/kg/injection, schedule: Q04DX003 (ip), vehicle: saline with Tween-80 103 % of control | dose: 80.0 mg/kg/injection, schedule: Q01DX001 (ip), vehicle: saline with Tween-80 102 % of control | dose: 80.0 mg/kg/injection, schedule: Q04DX003 (ip), vehicle: saline with Tween-80 102 % of control | dose: 160.0 mg/kg/injection, schedule: Q01DX001 (ip), vehicle: saline with Tween-80 105 % of control | dose: 160.0 mg/kg/injection, schedule: Q04DX003 (ip), vehicle: saline with Tween-80 103 % of control

Cc1ccc(S(=O)(=O)OC2CCCC3CC(=O)CCC32C)cc1 (stereo unspecified)
inactive: [1] 101 % of control | [2] 103 % of control | [3] 101 % of control | [4] 105 % of control | dose: 200.0 mg/kg/injection, schedule: Q01DX001 (ip), vehicle: saline 95 % of control | dose: 400.0 mg/kg/injection, schedule: Q01DX001 (ip), vehicle: carboxymethylcellulose (CMC) 103 % of control | dose: 400.0 mg/kg/injection, schedule: Q01DX001 (ip), vehicle: saline 98 % of control

CN(CCC(=O)c1ccccc1)C(C)(C)C
inactive: [5] 100 % of control

O=C(O)c1cc2oc3ccccc3c2cc1O
inactive: [6] 94 % of control | [7] 98 % of control | [8] 100 % of control | [9] 95 % of control | [10] 93 % of control

NC(=O)N/N=C(\CBr)c1ccc([N+](=O)[O-])cc1
inactive: [5] 96 % of control | dose: 200.0 mg/kg/injection, schedule: Q04DX003 (ip), vehicle: saline 89 % of control | dose: 400.0 mg/kg/injection, schedule: Q04DX003 (ip), vehicle: saline 91 % of control

Cc1nc(C#N)c(C#N)nc1C
inactive: dose: 6.25 mg/kg/injection, schedule: Q01DX009 (ip), vehicle: Klucel (hydroxypropylcellulose) (HPC) 96 % of control | dose: 12.5 mg/kg/injection, schedule: Q01DX009 (ip), vehicle: Klucel (hydroxypropylcellulose) (HPC) 98 % of control | dose: 12.5 mg/kg/injection, schedule: Q04DX003 (ip), vehicle: Klucel (hydroxypropylcellulose) (HPC) 101 % of control | [11] 100 % of control

C[N+](C)(C)c1ncncn1
inactive: dose: 12.0 mg/kg/injection, schedule: Q04DX003 (ip), vehicle: saline 98 % of control | dose: 25.0 mg/kg/injection, schedule: Q04DX003 (ip), vehicle: saline 98 % of control | dose: 50.0 mg/kg/injection, schedule: Q04DX003 (ip), vehicle: saline 104 % of control

Nc1ccc(N=Nc2cc(Cl)ccc2Cl)c(N)n1
inactive: dose: 50.0 mg/kg/injection, schedule: Q01DX001 (ip), vehicle: other 103 % of control | dose: 100.0 mg/kg/injection, schedule: Q01DX001 (ip), vehicle: other 86 % of control | dose: 200.0 mg/kg/injection, schedule: Q01DX001 (ip), vehicle: other 92 % of control | dose: 400.0 mg/kg/injection, schedule: Q01DX001 (ip), vehicle: other 92 % of control

CCOC(=O)c1[nH]c(C)c(/C=C/C(=O)O)c1C
inactive: [11] 98 % of control | dose: 50.0 mg/kg/injection, schedule: Q04DX003 (ip), vehicle: Klucel (hydroxypropylcellulose) (HPC) 95 % of control | dose: 100.0 mg/kg/injection, schedule: Q01DX001 (ip), vehicle: Klucel (hydroxypropylcellulose) (HPC) 106 % of control | [7] 101 % of control | dose: 200.0 mg/kg/injection, schedule: Q01DX001 (ip), vehicle: Klucel (hydroxypropylcellulose) (HPC) 98 % of control | dose: 400.0 mg/kg/injection, schedule: Q01DX001 (ip), vehicle: Klucel (hydroxypropylcellulose) (HPC) 98 % of control

CNC(=S)N/N=C(/C)C(=O)O
inactive: [6] 96 % of control | [7] 96 % of control | [8] 96 % of control | [9] 91 % of control | [12] 102 % of control | [10] 88 % of control

CC(C)OCCCN
inactive: [2] 97 % of control | [4] 97 % of control

CN(C)c1ccc2cc3ccc(N(C)C)cc3nc2c1
inactive: dose: 6.25 mg/kg/injection, schedule: Q01DX009 (ip), vehicle: saline with Tween-80 93 % of control | dose: 12.5 mg/kg/injection, schedule: Q01DX009 (ip), vehicle: saline with Tween-80 98 % of control | dose: 25.0 mg/kg/injection, schedule: Q01DX009 (ip), vehicle: saline with Tween-80 93 % of control | dose: 25.0 mg/kg/injection, schedule: Q04DX002 (ip), vehicle: saline with Tween-80 98 % of control | dose: 50.0 mg/kg/injection, schedule: Q04DX002 (ip), vehicle: saline with Tween-80 98 % of control

CCCCCCCCCC(=O)N/N=C/c1cccnc1
inactive: dose: 100.0 mg/kg/injection, schedule: Q01DX009 (ip), vehicle: other 96 % of control | dose: 200.0 mg/kg/injection, schedule: Q01DX009 (ip), vehicle: other 86 % of control | dose: 400.0 mg/kg/injection, schedule: Q01DX009 (ip), vehicle: other 86 % of control

Nc1nc2ncc(CNc3ccc(C(=O)NC(CCC(=O)O)C(=O)O)cc3F)nc2c(=O)[nH]1 (stereo unspecified)
inactive: [1] 109 % of control | [3] 105 % of control

CCCCOc1ccc(OC(=O)Nc2ccc(C(=O)OCC)cc2)cc1
inactive: [6] 98 % of control | [8] 95 % of control | [12] 97 % of control

Clc1ncn[nH]1
inactive: dose: 100.0 mg/kg/injection, schedule: Q04DX003 (ip), vehicle: saline sonified 101 % of control | dose: 200.0 mg/kg/injection, schedule: Q04DX003 (ip), vehicle: saline sonified 106 % of control | dose: 400.0 mg/kg/injection, schedule: Q04DX003 (ip), vehicle: saline sonified 100 % of control
